From patent US8202527B2, “Method of combating turf pests with a combination of imidacloprid and bifenthrin” (priority 2005, dated 2012)

Experiments:
[1] = tested on: southern chinch bugs (pyrethroid-resistant chinch bugs); assay: Florida Study (a): St. Augustine grass lawns, chinch bug counts; format: in vivo, Blissus hirsutus; details: for number of southern chinch bugs per ft^2 (per 930 cm^2): bifenthrin 0.2 lb/A, imidacloprid 0.25 lb/A where applied
Description: (§1) The following tests were performed to show the efficacy of combinations containing imidacloprid and bifenthrin against pyrethroid-resistant chinch bugs (Blissus hirsutus).
St. Augustine grass lawns, were treated in the summer of 2005 with either bifenthrin at 0.2 lb/A (220 g/ha) or with one of two combination products containing imidacloprid at 0.25 lb/A (280 g/ha) plus bifenthrin at 0.2 lb/A (220 g/ha). At the time of application, populations of chinch bugs were very low. The grass was irrigated and mowed according to local agronomic practices. Because of poor efficacy, imidacloprid is not used commercially for this application and thus was not tested alone in this study.
The numbers of chinch bugs in the lawns were counted at 40 days after application (DAT). After this time period, lawns treated with the combination products containing imidacloprid and bifenthrin had no chinch bugs.

[2] = tested on: chinch bugs collected from Florida Study (b) lawns; assay: University of Florida laboratory bioassay of bifenthrin susceptibility; format: in vivo, Blissus hirsutus; details: bugs sampled from the treated lawns
Description: (§2) Seven St. Augustine grass lawns were treated several times in the summer of 2005 with bifenthrin at 0.2 lb/A (220 g/ha), the highest registered dose of the most widely-used product used for control of southern chinch bugs in Florida.

[3] = tested on: pyrethroid-resistant chinch bugs (southern chinch bugs); assay: Florida Study (b): seven St. Augustine grass lawns, chinch bug counts; format: in vivo, Blissus hirsutus
Description: as §1, §2
In October of 2005 the lawns were sampled, and the average population of chinch bugs in each lawn was 571 bugs/ft^2 (i.e., 571 bugs per about 930 cm^2), an exceedingly heavy population. After this sampling was done, the seven lawns were treated with a soluble concentrate formulation of a product containing imidacloprid plus bifenthrin at 0.25 lb/A plus 0.2 lb/A (280 g/ha plus 220 g/ha). Six days after treatment, the lawns were again sampled, at which time an average of 6 chinch bugs/ft^2 (i.e., 6 bugs per about 930 cm^2) was observed.

[4] = tested on: Japanese beetle (Popillia japonica); assay: Japanese beetle choice test on treated and untreated turfgrass cores; format: in vivo; details: 4 days after infestation
Description: The following tests were performed to show the efficacy of combinations containing imidacloprid and bifenthrin against Japanese beetle eggs (Popillia japonica).
Turfgrass cores (6.4 cm in diameter, 7 cm deep) were set into tight-fitting paper cups. Four cores were arranged in an ABAB layout in cylindrical plastic cages (60 cm in diameter, 50 cm high) cages with lids that prevented any insects inside from escaping. The cages were sufficiently large to allow adult Japanese beetles to fly and/or crawl unimpeded from one core to another, thereby providing an experimental design that was an accurate measure of which type of turf (untreated or insecticide treated) the adult beetles preferred.
Tests were carried out using the following compositions compared to untreated controls: • Composition (1): Imidacloprid at 0.25 lb/A (about 280 g/ha) plus bifenthrin at 0.2 lb/A (about 220 g/ha) • Composition (2): Imidacloprid at 0.3 lb/A (about 340 g/ha)
Eight replicates of each paired comparison were tested. Gravid adult female Japanese beetles were collected from the field and eight females were placed in each cage. Tests were carried out at 25° C. and with 14 h photophase. One day after infestation, a piece of apple was added to the cage as a food/water source.
At 4 days after infestation, the numbers of adult beetles found in treated and untreated cores were counted. […]

| SMILES | number of southern chinch bugs per ft^2 (per 930 cm^2) ([1]; 0 DAT) | number of southern chinch bugs per ft^2 (per 930 cm^2) ([1]; 40 DAT) | chinch bugs in the lawns (in words) ([1]; 40 days after application (DAT)) | control of southern chinch bugs (in words) ([1]; overall conclusion from the table data) | times less susceptible than a normal pyrethroid-susceptible population [2] | average population of chinch bugs in each lawn ([3]; October 2005, after several bifenthrin treatments at 0.2 lb/A, before the combination treatment) | control of southern chinch bugs (in words) ([3]; lawns treated several times in summer 2005 at 0.2 lb/A (220 g/ha)) | number of adult beetles found in treated cores ([4]; choice against untreated cores, imidacloprid 0.25 lb/A plus bifenthrin 0.2 lb/A, or imidacloprid alone 0.3 lb/A, 25° C.) | beetle preference between treated and untreated turf (in words) ([4]; paired choice comparison) |
| --- | --- | --- | --- | --- | --- | --- | --- | --- | --- |
| Cc1c(COC(=O)[C@@H]2[C@H](/C=C(\Cl)C(F)(F)F)C2(C)C)cccc1-c1ccccc1 (racemic) [Bifenthrin, 2-methylbiphenyl-3-ylmethyl (Z)-(1RS,3RS)-3-(2-chloro-3,3,3-trifluoroprop-1-enyl)-2,2-dimethylcyclopropane-carboxylate] | 0 per ft^2 (per 930 cm^2) | 250 per ft^2 (per 930 cm^2) | economically damaging levels | not effective | 47 times | 571 bugs/ft^2 | exceedingly poor | – | – |
| O=[N+]([O-])NC1=NCCN1Cc1ccc(Cl)nc1 [Imidacloprid] | – | – | – | – | – | – | – | 3.8 beetles | the beetles show preference |
